According to patent publication US20240115654A1, “INTRAVENOUS ADMINISTRATION OF ENGINEERED ANTIMICROBIAL AMPHIPHILIC PEPTIDES” (priority 2021, published 2024):
Like-named read-outs stand apart in the source and are kept apart here. Peptide text beside a SMILES is read from it.

From the text: All subjects who met eligibility criteria were confined to the clinical research unit from […] through Day 3. At admission, physical examination, vital signs, 12 lead ECG and weight were obtained, medical and medication history were updated if necessary, safety blood tests (hematology and chemistry), urinalysis, urine drug screen and an alcohol breath test were repeated and a urine pregnancy test was done for women of childbearing potential.
At each dose level, there were 2 sentinel subjects, (1 active, 1 placebo), who were dosed at least 48 hours in advance of the other subjects in their respective group. Following review of safety data, including physical examination, vital signs, and review of adverse events from the first 2 subjects, enrolment in the cohort continued.
A 12-lead ECG was performed on Day 1, within 60 minutes of infusion start (in triplicate), mid-way through the infusion, at the completion of the infusion, 30 minutes after completion of the infusion and at various timepoints following the end of the infusion.
Vital signs were recorded within 60 minutes pre-dose, at the mid-point of the infusion and post dose vitals were assessed at completion of the infusion, 0.5, 1, 2, 3, 4, 6, 9, 12, 24 and 48 hours post dose, after at least 3 minutes of rest in supine position.
Subjects returned to the study center 7 days after dosing, for the termination visit. A full physical examination, vital signs and weight were obtained, concomitant medications were updated if necessary, safety blood specimens (haematology and chemistry, PT and aPTT) and urine were collected for urinalysis and urine drug screening. A serum pregnancy test was done for women of childbearing potential and a 12-lead ECG was performed.
In this study dose limiting toxicity (DLT) was defined as any drug related ≥Grade 3 AEs occurring despite optimal therapeutic interventions (which included but were not limited to allergic/hypersensitivity reactions, dermatological reactions/infusion site reactions, haematological toxicities such as neutropenia, thrombocytopenia and anaemia and clinical chemistry abnormalities) experienced up to Day 7 (Termination Visit).
(§1) All subjects who received any amount of study drug were included in the safety analysis (Safety population).
The study was a double blinded, randomized, placebo-controlled study. The placebo administered was 0.9% sodium chloride.
On Day 1 (day of dosing), subjects were randomly assigned either peptide IV or Placebo IV. At each dose level, there were 2 sentinel subjects, (1 active, 1 placebo), who were dosed at least 48 hours in advance of the other subjects in their respective group. Following review of safety data, including physical examination, vital signs, and review of adverse events from the first 2 subjects, enrolment in the cohort continued. All subjects who met eligibility criteria were confined to the clinical research unit from Day −2 through Day 3. At admission, physical examination, vital signs, 12 lead ECG and weight were obtained, medical and medication history were updated if necessary, safety blood tests (hematology and chemistry), urinalysis, urine drug screen and an alcohol breath test were repeated and a urine pregnancy test was done for women of childbearing potential.
as §1

[1] = Cohort 5: 1 mg/kg IV 4-hr infusion (N = 6)
[2] = Cohorts 1-5, comparing dose level, infusion time, placebo and active

Q: What does the source list for CC(C)[C@H](NC(=O)[C@H](Cc1c[nH]c2ccccc12)NC(=O)[C@H](CCCNC(=N)N)NC(=O)[C@H](CCCNC(=N)N)NC(=O)[C@@H](NC(=O)[C@@H](NC(=O)[C@H](CCCNC(=N)N)NC(=O)[C@@H](NC(=O)[C@@H](NC(=O)[C@H](CCCNC(=N)N)NC(=O)[C@H](CCCNC(=N)N)NC(=O)[C@H](Cc1c[nH]c2ccccc12)NC(=O)[C@@H](NC(=O)[C@H](CCCNC(=N)N)NC(=O)[C@H](CCCNC(=N)N)NC(=O)[C@@H](NC(=O)[C@H](CCCNC(=N)N)NC(=O)[C@H](CCCNC(=N)N)NC(=O)[C@@H](NC(=O)[C@H](Cc1c[nH]c2ccccc12)NC(=O)[C@H](CCCNC(=N)N)NC(=O)[C@@H](N)CCCNC(=N)N)C(C)C)C(C)C)C(C)C)C(C)C)C(C)C)C(C)C)C(C)C)C(=O)N[C@@H](CCCNC(=N)N)C(=O)N[C@@H](CCCNC(=N)N)C(N)=O [SEQ ID NO: 1] (H-RRWVRRVRRVWRRVVRVVRRWVRR-NH2)?
A: Treatment-related TEAE: Blood and Lymphatic System Disorders, participants n (%) [1]: 0; Treatment-related TEAE: Constipation, participants n (%) [1]: 0; Treatment-related TEAE: Diarrhea, participants n (%) [1]: 0; Treatment-related TEAE: Dizziness, occurrences m [1]: 1; Treatment-related TEAE: Dizziness, participants n (%) [1]: 1 (16.7%); Treatment-related TEAE: Feeling hot, participants n (%) [1]: 0; Treatment-related TEAE: Gastrointestinal Disorders, occurrences m [1]: 1; Treatment-related TEAE: Gastrointestinal Disorders, participants n (%) [1]: 1 (16.7%); Treatment-related TEAE: General Disorders and Administration Site Conditions, occurrences m [1]: 7; Treatment-related TEAE: General Disorders and Administration Site Conditions, participants n (%) [1]: 6 (100%); Treatment-related TEAE: Headache, occurrences m [1]: 1; Treatment-related TEAE: Headache, participants n (%) [1]: 1 (16.7%); Treatment-related TEAE: Infusion related reaction, participants n (%) [1]: 0; Treatment-related TEAE: Infusion site discomfort, occurrences m [1]: 1; Treatment-related TEAE: Infusion site discomfort, participants n (%) [1]: 1 (16.7%); Treatment-related TEAE: Infusion site pain, occurrences m [1]: 3; Treatment-related TEAE: Infusion site pain, participants n (%) [1]: 3 (50.0%); Treatment-related TEAE: Infusion site reaction, occurrences m [1]: 2; Treatment-related TEAE: Infusion site reaction, participants n (%) [1]: 2 (33.3%); Treatment-related TEAE: Infusion site swelling, occurrences m [1]: 1; Treatment-related TEAE: Infusion site swelling, participants n (%) [1]: 1 (16.7%); Treatment-related TEAE: Injury, Poisoning, and Procedural Complications, participants n (%) [1]: 0; Treatment-related TEAE: Macule, occurrences m [1]: 1; Treatment-related TEAE: Macule, participants n (%) [1]: 1 (16.7%); Treatment-related TEAE: Musculoskeletal and Connective Tissue Disorders, participants n (%) [1]: 0; Treatment-related TEAE: Myalgia, participants n (%) [1]: 0; Treatment-related TEAE: Nervous system disorders, occurrences m [1]: 2; Treatment-related TEAE: Nervous system disorders, participants n (%) [1]: 2 (33.3%); Treatment-related TEAE: Oropharyngeal pain, participants n (%) [1]: 0; Treatment-related TEAE: Orthostatic hypotension, participants n (%) [1]: 0; Treatment-related TEAE: Phlebitis, participants n (%) [1]: 0; Treatment-related TEAE: Respiratory, Thoracic, and Mediastinal disorders, participants n (%) [1]: 0; Treatment-related TEAE: Skin and Subcutaneous Tissue Disorders, occurrences m [1]: 1; Treatment-related TEAE: Skin and Subcutaneous Tissue Disorders, participants n (%) [1]: 1 (16.7%); Treatment-related TEAE: Thrombocytopenia, participants n (%) [1]: 0; Treatment-related TEAE: Vascular Disorders, participants n (%) [1]: 0; Treatment-related TEAE: Vessel puncture site erythema, participants n (%) [1]: 0; Treatment-related TEAE: Vessel puncture site pain, participants n (%) [1]: 0; Treatment-related TEAE: Vomiting, occurrences m [1]: 1; Treatment-related TEAE: Vomiting, participants n (%) [1]: 1 (16.7%); adverse events judged Grade 3 or higher (Cohorts 1-4): none; changes in laboratory parameters (Cohorts 1-4): No clinically significant changes; related IRRs, events (Cohorts 1-4): 13; serious adverse events (SAEs) or deaths (Cohorts 1-4): no reports; subjects with related IRRs (Cohorts 1-4): 7; subjects with study drug infusion interrupted (Cohorts 1-4): 3; subjects with at least one TEAE (Cohorts 1-4 (0.05-0.5 mg/kg IV), 29 subjects in the SEQ ID NO: 1 arm): 25 (86.2%) subjects (%); TEAEs in SOC General disorders and administration site conditions (Cohorts 1-4, 29 subjects): 24.1%; TEAEs in SOC Injury, poisoning, and procedural complication (Cohorts 1-4, 29 subjects): 48.3%; Vascular access site pain (Cohorts 1-4, 29 subjects): 34.5%; subjects reporting Grade 2 TEAEs (Cohorts 1-4, 29 subjects): 13.8%; subjects with treatment related-TEAEs (Cohorts 1-4, 29 subjects): 24.1%; total TEAEs reported (Cohorts 1-4, 29 subjects in the SEQ ID NO: 1 arm): 52; AEs judged Grade 3 or higher (Cohorts 1-5): none; serious TEAEs (Cohorts 1-5): no reports; treatment-emergent DLTs (Cohorts 1-5): no reports; TEAEs in SOC General disorders and administration site conditions (Cohorts 1-5, 35 participants): 37.1%; TEAEs in SOC Injury, Poisoning, and Procedural Complications (Cohorts 1-5, 35 participants): 51.4%; participants with at least 1 TEAE deemed related to treatment (Cohorts 1-5, 35 participants): 37.1%; participants with at least 1 TEAE leading to study drug discontinuation (Cohorts 1-5, 35 participants): 5.7%; total TEAE events (Cohorts 1-5, 35 participants): 72; Vascular access site pain (Cohorts 1-5, 35 participants (n=10)): 28.6%; Holter monitoring and electrocardiograms (Cohorts 1-5, by treatment assignment or dose level): no trends of concern; hematology and coagulation [2]: no clinically significant patterns of change; serum chemistry [2]: no clinically significant patterns of change; participants with study drug infusion interrupted (Cohorts 1-5, of 47 participants, all in active treatment group): 8 (17.0%) participants (%); Participants Reporting at least One Related TEAE, % (Pooled SEQ ID NO: 1 (N = 29)): 24.1%; Related TEAE Blood and lymphatic system disorders, n participants (Pooled SEQ ID NO: 1 (N = 29)): 0
